Measurements taken from paper PMC10340331, “Methylthiosulfonate-Based Cysteine Modifiers as Alternative Inhibitors of Mercurial-Sensitive Aquaporins” (Cells, 2023).
Substitutions are numbered along the chain they refer to. Where two headings read alike, the source gives them in different places.

Tests used:
Format in all cases: cell-based
AQP1 [1] = molecular target: T1, AQP1 (Rattus norvegicus, UniProt P29975); experiment: stopped-flow light scattering water permeability of AQP1-expressing yeast at […]; Cys189Ala variant resistant
T1 sequence (P29975 1-269): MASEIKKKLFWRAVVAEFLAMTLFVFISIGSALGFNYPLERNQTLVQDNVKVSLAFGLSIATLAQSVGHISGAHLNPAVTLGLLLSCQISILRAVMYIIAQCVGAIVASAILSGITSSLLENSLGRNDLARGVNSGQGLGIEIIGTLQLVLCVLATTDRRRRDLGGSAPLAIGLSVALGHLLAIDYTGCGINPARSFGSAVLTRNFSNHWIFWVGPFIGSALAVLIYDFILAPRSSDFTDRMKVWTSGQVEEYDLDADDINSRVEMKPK

AQP1 [2] = molecular target: T1, AQP1; experiment: stopped-flow light scattering water permeability of AQP1-expressing yeast at […] (marginal effect); Cys189Ala variant resistant
AQP9 [3] = molecular target: T2, AQP9 (Homo sapiens, UniProt O43315, C213A); experiment: stopped-flow light scattering water and glycerol permeability of AQP9 Cys213Ala-expressing yeast at […]
T2 sequence (O43315 1-295 C213A): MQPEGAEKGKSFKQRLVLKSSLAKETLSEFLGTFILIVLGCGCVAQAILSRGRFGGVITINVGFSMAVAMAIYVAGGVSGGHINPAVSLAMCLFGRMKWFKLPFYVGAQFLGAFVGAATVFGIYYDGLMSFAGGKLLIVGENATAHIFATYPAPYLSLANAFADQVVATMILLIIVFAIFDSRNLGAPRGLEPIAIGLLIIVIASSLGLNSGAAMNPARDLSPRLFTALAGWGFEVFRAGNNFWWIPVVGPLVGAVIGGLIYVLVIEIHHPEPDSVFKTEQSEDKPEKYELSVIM

AQP9 [4] = molecular target: T3, AQP9 (Homo sapiens, UniProt O43315); experiment: stopped-flow light scattering water and glycerol permeability of AQP9-expressing yeast at […]
T3 sequence (O43315 1-295): T2 sequence (O43315 1-295 C213A) with A213C

AQP1 [5] = molecular target: T1, AQP1; experiment: stopped-flow light scattering water permeability of AQP1-expressing yeast; Cys189Ala variant resistant; reversed by ACC/DTT
AQP9 [6] = molecular target: T3, AQP9; experiment: stopped-flow light scattering water and glycerol permeability of AQP9-expressing yeast at […]; remark: listed apart in the source
AQP9 [7] = molecular target: T2, AQP9; experiment: stopped-flow light scattering water and glycerol permeability of AQP9 Cys213Ala-expressing yeast at […]; remark: listed apart in the source

CCCSS(C)(=O)=O [PMTS]
stopped-flow light scattering water permeability of AQP1-expressing yeast at 1 m (AQP1 [1]): modification with S-n-propyl from PMTS conferred intermediate inhibition

CSS(C)(=O)=O [MMTS]
stopped-flow light scattering water permeability of AQP1-expressing yeast at 1 m (AQP1 [2]): the transfer of a small S-methyl from MMTS had a marginal effect on the water permeability

CS(=O)(=O)SCc1ccccc1 [BMTS]
stopped-flow light scattering water and glycerol permeability of AQP9 Cys213Ala- (AQP9 [3]): The water permeability of AQP9 Cys213Ala was still inhibited to the same degree as that of the wildtype protein
stopped-flow light scattering water and glycerol permeability of AQP9-expressing (AQP9 [4]): AQP9 water and glycerol permeability were strongly inhibited by BMTS and pCMBS
IC50 (AQP1 [5]): 111 ± 3 µM

O=S(=O)([O-])c1cc[c]([Hg][Cl])cc1 [pCMBS]
stopped-flow light scattering water and glycerol permeability of AQP9-expressing (AQP9 [6]): AQP9 water and glycerol permeability were strongly inhibited by BMTS and pCMBS
stopped-flow light scattering water and glycerol permeability of AQP9 Cys213Ala- (AQP9 [7]): treatment of AQP9 Cys213Ala with BMTS or pCMBS failed to generate full resistance to the Cys-modifying agents
